Reference: US20030055065A1, “Tricyclic amide and urea compounds useful for inhibition of G-protein function and for treatment of proliferative diseases” (priority 1993, published 2003)
Like-named read-outs stand apart in the source and are kept apart here.

Molecular target: T1, farnesyl protein transferase (FPT), partially purified from rat brain (Rattus norvegicus, UniProt Q02293+Q04631)
T1 construct: were partially purified from rat brain by ammonium sulfate fractionation followed by Q-Sepharose
Assay: Inhibition of farnesyl protein transferase (transfer of [3H]farnesyl to Ras-CVLS)
Format: biochemical
Settings: for IC50: read-out: FPT IC50
Description: 1. In vitro enzyme assays: Inhibition of farnesyl protein transferase and geranylgeranyl protein transferase.
Human farnesyl protein transferase was also expressed in E. coli, using cDNA clones encoding both the α and β subunits. […] Human farnesyl protein transferase was partially-purified from the soluble protein fraction of E. coli as described above. […] Two forms of val^12-Ha-Ras protein were prepared as substrates for these enzymes, differing in their carboxy terminal sequence. One form terminated in cysteine-valine-leucine-serine (Ras-CVLS) the other in cystein-valine-leucine-leucine (Ras-CVLL). Ras-CVLS is a substrate for the farnesyl protein transferase while Ras-CVLL is a substrate for geranylgeranyl protein transferase I. The cDNAs encoding these proteins were constructed so that the proteins contain an amino-terminal extension of 6 histidine residues. Both proteins were expressed in Escherichia coli and purified using metal chelate affinity chromatography. The radiolabelled isoprenyl pyrophosphate substrates, [^3H]farnesyl pyrophosphate and [3H]geranylgeranyl pyrophosphate, were purchased from DuPont/New England Nuclear.
The reaction was allowed to proceed for 30 minutes at room temperature and then stopped with 0.5 ml of 4% sodium dodecyl sulfate (SDS) followed by 0.5 ml of cold 30% trichloracetic acid (TCA). Samples were allowed to sit on ice for 45 minutes and precipitated Ras protein was then collected on GF/C filter paper mats using a Brandel cell harvester. […] Percent inhibition was calculated relative to the DMSO vehicle control.

[1] = Ras-CVLS farnesylation, partially purified rat brain FPT

T1 sequence (Q02293 whole entry, one chain of several): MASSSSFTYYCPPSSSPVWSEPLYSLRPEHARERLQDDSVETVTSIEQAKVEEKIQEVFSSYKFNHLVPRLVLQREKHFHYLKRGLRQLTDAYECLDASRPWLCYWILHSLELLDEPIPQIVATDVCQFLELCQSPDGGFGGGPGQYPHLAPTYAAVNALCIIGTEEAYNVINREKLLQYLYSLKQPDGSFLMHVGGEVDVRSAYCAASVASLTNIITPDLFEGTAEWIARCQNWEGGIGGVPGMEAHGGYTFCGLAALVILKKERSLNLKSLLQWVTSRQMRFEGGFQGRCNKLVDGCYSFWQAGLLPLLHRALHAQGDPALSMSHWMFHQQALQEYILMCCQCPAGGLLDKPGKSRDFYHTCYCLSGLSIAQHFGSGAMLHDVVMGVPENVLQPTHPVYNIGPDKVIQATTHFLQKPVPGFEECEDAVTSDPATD

| SMILES | IC50 [1] [µM] | also measured |
| --- | --- | --- |
| CNC(=O)N1CCC(CC(=O)N2CCN(C3c4ccc(Cl)cc4CCc4cccnc43)CC2)CC1 (stereo not drawn) [Example 431-A] |  | IC50 (enzyme inhibition): 1.05 µM |
| O=C(N[C@@H]1C[C@H]1c1ccccc1)N1CCC(=C2c3ccc(Cl)cc3CCc3cccnc32)CC1 [Example 101] | 4.6 |  |
| CC(=O)N1CCC(=C2c3ccc(Cl)cc3CCc3ncccc32)CC1 [Example 144] |  | FPT inhibition (at 50 μM): 30% at 50 μM |
| O=C(Cc1ccncc1)N1CCC(=C2c3ccc(Cl)cc3CCc3cc(F)cnc32)CC1 [Example 411-M] |  | IC50 (enzyme inhibition): 0.65 µM |
| O=C(C(=O)N1CCC(=C2c3ccc(Cl)cc3CCc3cccnc32)CC1)c1ccccc1 [Example 296] | 4.1 |  |
| O=C1CCC(C(=O)N2CCC(=C3c4ccc(Cl)cc4CCc4cccnc43)CC2)O1 (stereo not drawn) [Example 39] | 13.4 |  |
| O=C(Nc1cc[n+]([O-])cc1)N1CCC(=C2c3ccc(Cl)cc3CCc3cc(Cl)ccc32)CC1 [Example 422-A] |  | FPT inhibition at the concentration in parentheses ((1.2) μM): 22 (1.2); IC50 (enzyme inhibition): > 1.2 µM |
| CN1CCCC(CC(=O)N2CCC(=C3c4ccc(Cl)cc4CCc4cc(F)cnc43)CC2)C1 (stereo not drawn) [Example 411-S] |  | IC50 (enzyme inhibition): 2.1 µM |
| CSc1ccc(C(=O)N2CCC(=C3c4ccc(Cl)cc4CCc4cccnc43)CC2)cc1 [Example 108] | 6.9 |  |
| CC(O)C(=O)N1CCC(=C2c3ccc(Cl)cc3CCc3cccnc32)CC1 (stereo not drawn) [Example 116] | 15.7 |  |
| CNc1ccc(C(=O)N2CCC(=C3c4ccc(Cl)cc4CCc4cccnc43)CC2)cn1 [Example 109] | 7.2 |  |
| O=C(Cc1cccs1)N1CCC(=C2c3ccc(Cl)cc3CCc3cccnc32)CC1 [Example 102] | 4.6 |  |
| O=C(c1ccccn1)N1CCC(=C2c3ccc(Cl)cc3CCc3cccnc32)CC1 [Example 29] | 8 |  |
| O=C(c1cc[n+]([O-])cc1)N1CCC(=C2c3ccccc3CCc3ccccc32)CC1 [Example 151] | 15 |  |
| O=C(c1cc[nH]c(=O)c1)N1CCC(=C2c3ccc(Cl)cc3CCc3cccnc32)CC1 [Example 25] | 6.25 |  |
| COC(=O)N1CCC(CC(=O)N2CCN(C3c4ccc(Cl)cc4CCc4cccnc43)CC2)CC1 (stereo not drawn) [Example 430] |  | IC50 (enzyme inhibition): 1.3 µM |
| COCC(=O)N1CCC(=C2c3ccc(F)cc3CCc3cccnc32)CC1 [Example 145] | > 10 |  |

| SMILES | IC50 [1] [µM] | also measured |
| --- | --- | --- |
| CC(=O)c1cnc2c(c1)CCc1cc(Cl)ccc1C2=C1CCN(C(C)=O)CC1 [Example 139] |  | FPT inhibition (at 15.2 μM): 37% at 15.2 μM |
| CC1(C2CCN(C(=O)Cc3cc[n+]([O-])cc3)CC2)c2ccc(Cl)cc2CCc2cccnc21 (stereo not drawn) [Example 401-A] | 1.7 |  |
| O=C(Cc1ccc[n+]([O-])c1)N1CCC(C2c3ccc(Cl)cc3CCc3cc(Br)cnc32)CC1 (stereo not drawn) [Example 411-Z] |  | IC50 (enzyme inhibition): 1.5 µM |
| CC(=O)N1CCC(=C2c3ccc(Cl)cc3CCc3cc(C)cnc32)CC1 [Example 64] | 10.6 |  |
| O=C(Cc1ccncc1)N1CCC(=C2c3ccc(Cl)cc3CCc3ccc(O)nc32)CC1 [Example 411-C] |  | IC50 (enzyme inhibition): 6 µM |
| COc1cc[n+]([O-])c2c1CCc1cc(Cl)ccc1C2=C1CCN(C(C)=O)CC1 [Example 74A] |  | FPT inhibition (at 14.2 μM): 25% at 14.2 μM |
| O=C(c1ccccc1)N1CCC(=C2c3ccc(Cl)cc3CCc3cccnc32)CC1 [Example 54] | 5.3 |  |
| O=C(c1cc[nH]c1)N1CCC(=C2c3ccc(Cl)cc3CCc3cccnc32)CC1 [Example 16] | 4.8 |  |
| CN1CCC(CC(=O)N2CCC(=C3c4ccc(Cl)cc4CCc4cc(F)cnc43)CC2)CC1 [Example 411-R] |  | FPT inhibition at the concentration in parentheses ((1.3) μM): 29 (1.30); IC50 (enzyme inhibition): ~4 µM |
| O=C(Cc1cccnc1)N1CCC(=C2c3ccc(Cl)cc3CC(O)c3cccnc32)CC1 (stereo not drawn) [Example 280] | 23 |  |
| O=C(c1cccnc1)N1CCC(=C2c3ccc(Cl)cc3CCc3cccnc32)CC1 [Example 26] | 6.3 |  |
| CC(=O)N1CCC(=C2c3ccc(Cl)cc3CCc3c(Cl)ccnc32)CC1 [Example 135] | 7.7 |  |
| CC1(C2=CCN(C(=O)Cc3ccncc3)CC2)c2ccc(Cl)cc2CCc2cccnc21 (stereo not drawn) [Example 410-F] | 2.2 |  |
| CC(=O)N1CCC(=C2c3cc(Cl)c(Cl)cc3CCc3cccnc32)CC1 [Example 71C] |  | FPT inhibition (at 15.5 μM): 38% at 15.5 μM |
| Cn1nnnc1Sc1ccnc2c1CCc1cc(Cl)ccc1C2=C1CCN(C(=O)Cc2cccnc2)CC1 [Example 259] | 2.2 |  |
| O=C(c1cn[nH]c1)N1CCC(=C2c3ccc(Cl)cc3CCc3cccnc32)CC1 [Example 18] | 4.9 |  |
| CC(=O)N1CCC(C2c3cc4ccccc4cc3CCc3ccc[n+]([O-])c32)CC1 (stereo not drawn) [Example 141] |  | FPT inhibition (at 50 μM): 29% at 50 μM |
